Measurements published in patent US20210137903A1, “ANTI-ANDROGENS FOR THE TREATMENT OF PROSTRATE CANCER” (priority 2019, published 2021).
Where two headings read alike, the source gives them in different places.

Columns and labels:
[1] = Single 240-mg dose pharmacokinetics in healthy subjects (earlier studies); format: in vivo, human
Text: (§1) Apalutamide is a Biopharmaceutics Classification System Class II drug (highly permeable and poorly soluble). The commercialized formulation is a spray dried powder of amorphous apalutamide.

[2] = Dosing accuracy, chemical stability and appearance of apalutamide tablets dispersed in applesauce (UHPLC); format: physicochemical
Experimental: The tablet core weight was 700 mg. […] Appearance was determined visually. Dosing accuracy and chemical stability (the concentration and impurities) were measured using the following UHPLC Procedure. The reagents used in the UHPLC procedure were demineralized water, ammonium acetate, trifluoroacetic acid and acetonitrile. Mobile Phase A was a 10 mM NH4Ac+01% TFA/Acetonitrile (90/10 v/v) solution prepared as follows. 0.77 g Ammonium acetate (NH4Ac) was transferred into a 1000 mL volumetric flask. […] Mobile Phase B was acetonitrile. Sample solutions were prepared as described in the individual examples which follow hereinafter. [table] For chemical stability (chromatographic characteristics) the identity of impurities were assigned based on comparison of their Relative Retention Times (RRT) to known retention times, or retention times determined using reference solutions. […] The mixture was gently mixed in the container with a spatula for 10 seconds and the time recorded. The hold time of the sample was calculated against the moment the tablets were added to the mixture. After 15 minutes, the mixture was again gently mixed with a spatula for 10 seconds and the time recorded. After an additional 15 minutes, the mixture was again gently mixed with a spatula for until a uniform mixture was formed (at least 10 seconds) and the time recorded. […]

[3] = Safety in healthy subjects (previous single-dose studies); format: in vivo
Text: Healthy subjects are commonly selected for PK studies as they allow for assessments in the absence of confounding factors such as comorbid conditions and concomitant medications. In this study, only male subjects were enrolled as the target patient population for clinical use of apalutamide consists of male subjects with CRPC.
The potential risks to subjects in this study included exposure to study drugs, with a potential for AEs. […] Subjects were monitored for AEs throughout the study, and an expert investigator was chosen to conduct the study. In each treatment period, subjects were confined to the study center until completion of the 72-hour PK assessments on Day 4 and returned to the study center for additional assessments up to Day 8 after intake of the study drug. Subject's safety was monitored at regular intervals throughout the study by physical examination, laboratory safety assessments, ECG and vital signs.

CRPC = assay: Phase II clinical trial, apalutamide 240 mg continuous daily dosing in CRPC; format: in vivo, human; conditions: for patients with 12-week PSA declines of >50% or more from baseline: 240 mg daily
Text: The primary objective was to assess antitumor activity and PSA kinetics as defined by the Prostate Cancer Clinical Trials Working Group (PCWG2) criteria. […] The median time to PSA progression was not reached for the TN cohort during the preliminary 12-week period, and was 16 weeks in the PA cohort.
The median time to PSA progression was not reached in this observed time period.

[4] = Biopharmaceutics Classification System classification; format: physicochemical; conditions: highly permeable and poorly soluble
Text: as §1

[5] = Single-dose 14C-apalutamide absolute bioavailability and microtracer study; set-up: species or system human; conditions: in vivo
high-risk nmCRPC = assay: Phase 3 SPARTAN registration study, apalutamide 240 mg once daily vs placebo; format: in vivo, human
Text: This study was a randomized, double-blind, placebo-controlled, multicenter trial that evaluated apalutamide treatment in patients with high-risk nmCRPC. […] All patients continued to receive ongoing androgen-deprivation therapy (GnRHa or surgical castration).

[6] = tested on: non-castrate hormone-sensitive and bicalutamide-resistant human prostate cancer xenograft models; conditions: cited from earlier work

CNC(=O)c1ccc(N2C(=S)N(c3cnc(C#N)c(C(F)(F)F)c3)C(=O)C23CCC3)cc1F [apalutamide, 4-[7-(6-cyano-5-trifluoromethylpyridin-3-yl)-8-oxo-6-thioxo-5,7-diazaspiro[3.4]oct-5-yl]-2-fluoro-N-methylbenzamide]
Cmax lower with a high-fat meal compared to fasted ([1]; fed vs fasted): approximately 16%
extent of absorption based on AUC∞ under fed conditions ([1]; fed vs fasted): remained unchanged
bioavailability ([1]; human, in vivo, oral, single dose 240 mg, read-out: absolute bioavailability): ~100%
Cmax ([1]; human, plasma, oral, 240 mg, N=15, read-out: mean single dose plasma Cmax): ~2400 ng/mL
half-life ([1]; human, plasma, oral, 240 mg, human, read-out: half-life (converted)): ~168 h
Cmax ([1]; human, plasma, oral, 240 mg, read-out: mean Cmax from a similar study): 2420 ng/mL
half-life ([1]; human, plasma, oral, 240 mg, read-out: mean elimination half-life (t1/2) (converted)): ~162 h
AUC(0-t) ([1]; human, plasma, oral, 240 mg, N=15, read-out: AUC0-168 h from another bioavailability study): 121 µg·h/mL
AUC ([1]; human, plasma, oral, 240 mg, N=15, read-out: mean AUC28): 225 µg·h/mL
Tmax ([1]; human, plasma, oral, single 240-mg dose, tablet, healthy subjects, read-out: median Tmax): 2 to 3 h
Fabs ([1]; single dose 240 mg): 1.11
time the drug was found to be stable in applesauce [2]: at least 6 hours
testosterone and luteinizing hormone (LH) ([3]; healthy men, 240 mg): transient increase
TSH ([3]; healthy men, single dose 240 mg): Reversible mild increases
tolerability of single doses up to 240 mg ([3]; human, in vivo): well tolerated
tolerability (CRPC; 240 mg continuous daily dosing): very well tolerated
median time to PSA progression (CRPC; PA cohort): 16 weeks
median time to PSA progression (CRPC; TN cohort, preliminary 12-week period): not reached
objective response rate (by RECIST) (CRPC; TN patients with measurable disease at baseline): 63%
patients with >50% decline in PSA as compared to baseline (CRPC; non-metastatic CRPC, 12 weeks): 91%
patients with >50% decline in PSA (CRPC; non-metastatic CRPC, 24 weeks): 91%
patients with >90% decline in PSA (CRPC; non-metastatic CRPC, 24 weeks): 55%
median time to PSA progression (CRPC; non-metastatic CRPC, observed time period): not reached
patients with 12-week PSA declines of >50% or more from baseline (CRPC; post-abiraterone (PA) metastatic CRPC cohort): 29%
patients with 12-week PSA declines of >50% or more from baseline (CRPC; treatment-naive (TN) metastatic CRPC cohort): 88%
Biopharmaceutics Classification System class [4]: Class II
14C-radioactivity excreted via feces (arithmetic mean) [5]: 24.3%
total 14C-radioactivity excreted in urine (arithmetic mean) [5]: 64.2%
total administered 14C-radioactive dose recovered [5]: 88.9%
subjects with documented PSA progression (high-risk nmCRPC; 192 subjects): 24%
arthralgia (high-risk nmCRPC; TEAE incidence): 16%
diarrhea (high-risk nmCRPC; TEAE incidence): 20%
fatigue (high-risk nmCRPC; TEAE incidence): 30%
hypertension (high-risk nmCRPC; TEAE incidence): 25%
nausea (high-risk nmCRPC; TEAE incidence): 18%
weight decreased (high-risk nmCRPC; TEAE incidence): 16%
fall (high-risk nmCRPC; TEAE incidence, all grades): 16%
skin rash (grouped term) (high-risk nmCRPC; TEAE incidence, all grades): 24%
fracture (high-risk nmCRPC; all grades): 12%
hypothyroidism (high-risk nmCRPC; all grades): 8.1%
seizure (high-risk nmCRPC; all grades): 0.2%
Grade 3 skin rashes (high-risk nmCRPC; in vivo): 5.2%
decrease of risk of PSA progression compared with placebo (high-risk nmCRPC; in vivo): 94%
incidence of AEs of special interest (high-risk nmCRPC; in vivo): 42%
longer median metastasis-free survival over placebo (high-risk nmCRPC; in vivo): 2 years
lower limit of the 95% CI for the median time to PSA progression (high-risk nmCRPC; in vivo): 36.8 months
median time to PSA progression (high-risk nmCRPC; in vivo): not estimable
subjects who discontinued treatment due to TEAEs (high-risk nmCRPC; in vivo): 11%
subjects with Grade 3-4 TEAEs (high-risk nmCRPC; in vivo): 45%
subjects with serious adverse events (SAEs) (high-risk nmCRPC; in vivo): 25%
subjects with treatment-emergent adverse events (high-risk nmCRPC; in vivo): 97%
total PSA response (confirmed and unconfirmed) (high-risk nmCRPC; in vivo): 93%
confirmed prostate-specific antigen (PSA) response (high-risk nmCRPC; subjects in apalutamide arm): 90%
HR for PSA progression (high-risk nmCRPC; vs placebo, 95% CI: 0.052, 0.080): 0.064
tumor regression [6]: partial or complete tumor regression
